# Data reported in article PMC10788856, “Mimicking Nonribosomal Peptides from the Marine Actinomycete Streptomyces sp. H-KF8 Leads to Antimicrobial Peptides” (ACS Infectious Diseases, 2023).
# Numbered stars: 1 amine (or outer) side, 2 acyl side, 3 side chain; on linkers, the order of the positions; unused ones are H or OH. Bridge positions count the residues as written; N and C are the ends. Square brackets hold non-standard residues; d marks the D form. Peptide text beside a SMILES is read from it. Tyr(3-NO2) = N[C@@H](Cc1ccc(O)c([N+](=O)[O-])c1)C(=O)O; Glutaryl = O=C(CCCC(=O)[*:2])[*:1]; Orn = NCCC[C@H](N)C(=O)O
# What was measured:
# [1] = system: S. aureus; assay: microbe, parasite or virus in culture; format: cell-based; details: 16 h
# [2] = system: hepatoblastoma (HepG2) cells; format: cell-based, human
# Protocol: To confirm the peptide selectivity toward bacteria cells, cytotoxicity assays of synthesized peptides L2, L3, L3-K, and C3 against human embryonic kidney (HEK) and hepatoblastoma (HepG2) were performed (Figure 4). The cell viability was assessed using resazurin 24 h post peptide exposure. The line at 70% cell viability marks out the threshold for cytotoxic potential compared to the negative control.
# Figure 4 Cell viability assessment using the resazurin assay 24 h post peptide exposure: (a) HepG2 and (b) HEK cells were treated with various concentrations of the peptides C3, L3, L3-K, and L2. Triton-X was used as a positive control. Cells cultured in pure cell media were used as negative controls and were considered to have 100% cell viability. The line represents the threshold for cytotoxicity level of 70% of cell viability compared to the negative control. Data are presented as the mean ± SD of three biological replicates of the HepG2 cells and the mean ± SD of two biological replicates of the HEK cells.
# Cytotoxicity against human embryonic kidney (HEK) and hepatoblastoma (HepG2) cell lines was assessed. Cells were grown to an initial seeding density of 10 000 cells per well. Metabolic activity was determined in a resazurin-based assay. HEK and HepG2 cells were exposed to four different concentrations of the peptides for 24 h. Treatment with Triton X-100 at 1% v/v was used as a positive control. Following this exposure period, the cells were treated with resazurin at a final concentration of 0.015 mg/mL for 3 h. The metabolic activity was then determined in an resazurin-based assay. The fluorescence intensities were quantified in a Hidex Sense microplate reader using an excitation wavelength of 544 nm and an emission wavelength of 590 nm.
# [3] = system: E. coli CCUG31246; assay: DiSC(3)5 microscopy (membrane potential); format: cell-based; details: 0.5 μM DiSC(3)5
# Source text: Propidium iodide is a large organic molecule that is not suitable to detect smaller ion-conducting pores or channels induced by antimicrobials. To assess whether the peptides may form smaller membrane pores sufficient for the passage of ions, we tested their effects on the membrane potential using the fluorescence probe DiSC(3)5.[40] This dye accumulates in the cell membrane in a membrane potential-dependent manner and disassociates, when the membrane potential is dissipated. […] This effect can be clearly seen with polymyxin B (Figure 7b).
# The membrane potential of E. coli CCUG31246 and E. coli MC4100 carrying pABCON2-fhuA ΔC/Δ4L was measured by DiSC(3)5 microscopy according to ref. ([40]) with minor modifications. Cells were grown in 1:10 BHI containing 50 μg/mL bovine serum albumin to an OD600 of 0.3 prior to antibiotic treatment with the respective peptides for 10 and 60 min. Samples were stained with 0.5 μM DiSC(3)5 for 15 min (added 5 min before adding antibiotics for the 10 min time point and after 45 min of antibiotic treatment for the 60 min time point). Stained samples were spotted on 1.2% agarose, sealed with a gene frame, and imaged immediately. Microscopy was performed as described above, and fluorescence intensity was analyzed with the same parameters used for propidium iodide detection.
# [4] = system: E. coli CCUG31246; assay: Propidium iodide staining (pore formation); format: cell-based
# Protocol: Due to the overall similarity of the peptides’ cytological profiles to that of polymyxin B, we further tested their ability to form pores in the cell membrane. To this end, we used the fluorescence probe propidium iodide, which cannot cross intact membranes but can enter cells through pores of sufficient size.[39]
# Pore formation was investigated with the fluorescence dye propidium iodide as described previously[56] with minor modifications. E. coli CCUG31246 was grown to an OD600 of 0.3 and subsequently treated with different peptides for 10 and 60 min. Samples were stained with 1 μg/mL propidium iodide for 15 min (added 5 min before adding antibiotics for the 10 min time point and after 45 min of antibiotic treatment for the 60 min time point), spotted on 1.2% agarose films, and sealed with a gene frame. Microscopy was performed as described above. The fluorescence intensity of the different samples was analyzed with MicrobeJ. For detection of bacterial cells from phase contrast images, parameters were set to an area of 1.5-max, length of 1-max, width 0.5–2.5, curvature 0–1.5, and an angularity of 0–0.5. Fluorescence intensity parameters were set to an area of 1.5-max, length of 1-max, and width 0.5–2.5. All other parameters remained at default settings.
smiles,measurement,setting,value
CC(C)[C@H]1NC(=O)[C@H](CCCN)NC(=O)[C@H]([C@@H](C)O)NC(=O)[C@H](CCCN)NC(=O)[C@H](Cc2c[nH]c3ccccc23)NC(=O)[C@@H](C)NC(=O)[C@@H](C(C)C)NC(=O)[C@@H](C)NC(=O)[C@H](Cc2c[nH]c3ccccc23)NC(=O)CCCC(=O)NCCCC[C@@H](C(N)=O)NC(=O)[C@H](Cc2ccc(O)c([N+](=O)[O-])c2)NC1=O [C3] (W[dA][dV][dA]W[Orn]T[Orn][dV][Tyr(3-NO2)]K-NH2; linker N-11 via Glutaryl),S. aureus MIC,[1],>512 µg/mL
same,"cytotoxicity, cell viability HepG2",[2],at the highest tested concentration seems to have cytotoxic properties
same,"membrane potential, DiSC(3)5 fluorescence, 10 min","[3]; 1× MIC of peptide, polymyxin B 10 μg/mL, 10 min",no effect on the membrane potential
same,"membrane potential, DiSC(3)5 fluorescence, 60 min","[3]; 1× MIC, 60 min",partial depolarization
same,cells remaining unstained by propidium iodide after 60 min,"[4]; 1× MIC (64 μg/mL L3, 128 μg/mL L3-K, 512 μg/mL C3), 60 min, 1 μg/mL propidium iodide",64%
same,propidium iodide uptake,"[4]; 1× MIC of peptide, polymyxin B 10 μg/mL, 10 and 60 min",only a small subpopulation of cells
